Source: patent publication US10098849B2, “Anti-radical agents” (BASF SE, priority 2004, dated 2018)
Where two headings read alike, the source gives them in different places.

Tests used:
[1] = tested on: squalene peroxidation (squalenehydroperoxide) in skin lipids; assay: Efficacy against photooxidative stress in the skin induced by UVA irradiation (squalenehydroperoxide, HPLC); format: in vivo, human
Description: Anti-oxidant activity in vivo is measured via the capacity of a test compound to reduce radical induced lipid-peroxidation. • Persons tested: 10 individuals (4 female, 6 male); age range: 18 to 32 years • Body region tested: inner forearm • Application phase: once a day • Test period 7 days • Evaluation method: Determination of squalene • Determination of squalenehydroperoxide • Time of Evaluation: after UVA radiation • Evaluation: Descriptive statistics: average, median, minimum, maximum, variance, standard error, standard deviation; Multiple range test. Test Method
On the inner forearm of each subject symmetrically opposed areas are defined. The different formulations are applied once a day at a dose of about 2 mg of test solution/cm^2 for one week (application with a syringe for fine dosage: Omnifix®-F 1 ml; manufacturer: Braun Melsungen AG, Germany).
Two areas remain untreated.
The unique application of a solution of tocopherol in ethanol (0.2%) before irradiation serves as control.
Use of other cosmetic products is restricted on the test areas throughout the whole study. The areas (exception: one of the two untreated areas was not irradiated and can be attributed to environmental UVA radiation during the test) of the […] were then irradiated with UVA light (10 joule/cm^2). The lipids present on the test areas are harvested via a solvent extraction (4 ml ethanol for 2 minutes). The samples are first filtered through hydrophobic polypropylene filters to decant squames and other insoluble material, then dried under nitrogen at room temperature and taken up in 1 ml ethanol. Squalene (SQ) and squalenehydroperoxide (SQOOH) are then analysed by High Performance Liquid Chromatography (HPLC).
The fluorometer is used as a photon detector with the excitation source turned off.
This assay measures the hydroperoxy groups themselves and not indirect indices of lipid peroxidation such as conjugated dienes or breakdown products of lipid hydroperoxides. Chemiluminescence also detects ubiquinols. To confirm that any chemiluminescence observed in this assay was due to a hydroperoxide, not a hydroquinone, some samples were reduced with triphenyl phosphine and rerun.
Measuring data are centrally computerised after validity check and quality assurance. Evaluation is done using the software Statgraphics for Windows, Version 5.0—Manugistics, USA. Data are analysed by multiple range test (LSD: Least Significant Differences). The 0.05 level is selected as the point of minimal acceptance statistical significance.

[2] = tested on: Primary human dermal fibroblasts (HDF-N2)
Description: Cell cultures: Primary human dermal fibroblasts (HDF-N2) are maintained in Dulbecco's culture media (DMEM; 1 g/l glucose), supplemented with 10% of fetal calf serum (FCS), 100 μg/ml of streptomycin sulphate, 100 μml of penicillin and 2 mM of L-glutamine, all of them from Biowhitaker, USA. Confluent cells are detached by incubation for 3 minutes in 0.055 trypsin/0.53 mM EDTA at 37° C. and plated at the established cell density (normally, 15×10^4 cells/cm^2).
Culture media of negative controls are containing 10 mMol NaCl or 0.05% DMSO or 0.05% ethanol, respectively. Positive control is a culture medium containing 0.02% of Sodium Lauryl Sulfate (SDS).
For comparative purposes, a further culture medium is used containing the compound of the formula

[3] = 5% stock solution in DMSO or ethanol diluted 1:500 in culture medium with 10% FCS, 48 h HDF cultures, more absorption = more viable cells
[4] = 1% b.w. solution in ethanol, about 2 mg/cm^2 once a day for 7 days, inner forearm, UVA 10 joule/cm^2, 10 individuals

| Molecule | average inhibition in % of peroxidation (SQOOH relative to untreated area) [1, 4] | Absorbance (OD450) after 24 h treatment ([2]; human, 24 h, 0.01 %) | also measured |
| --- | --- | --- | --- |
| pentaerythritol-tetrakis(3-[3′,5′-di-tert.butyl-4′-hydroxyphenyl]-propionate) [AO7] | – | – | average inhibition in % of peroxidation (SQOOH relative to untreated area) ([1]; 0.1% b.w. solution in ethanol, about 2 mg/cm^2 once a day for 7 days, inner forearm, UVA 10 joule/cm^2, 10 individuals): 21.5%; Absorbance (OD450) after 24 h treatment [2, 3]: 2.0 |
| CC(c1cc(C(C)(C)C)cc(C(C)(C)C)c1O)c1cc(C(C)(C)C)cc(C(C)(C)C)c1O [AO4] | 28% | 1.0 | – |
| CCCCCCCCCCCCOS(=O)(=O)[O-].[Na+] [SDS, Sodium Lauryl Sulfate, reference compound] | – | – | Absorbance (OD450) after 24 h treatment ([2]; positive control, culture medium containing 0.02% Sodium Lauryl Sulfate, 48 h HDF cultures): 0.25 |
| CC1(C)CC(O)CC(C)(C)N1O [AO8] | 21% | – | Absorbance (OD450) after 24 h treatment [2, 3]: 1.65 |
| CC(C)(C)c1cc(CCC(=O)Nc2ccc(S(=O)(=O)[O-])cc2)cc(C(C)(C)C)c1O.[Na+] [AO6] | 28% | 1.9 | – |
| Cc1c(C)c2c(c(C)c1O)CC[C@@](C)(CCC[C@H](C)CCC[C@H](C)CCCC(C)C)O2 [Control, tocopherol, reference compound] | – | – | average inhibition in % of peroxidation (SQOOH relative to untreated area) ([1]; unique application of tocopherol in ethanol (0.2%) before irradiation, UVA 10 joule/cm^2): 22.5% |
| CC(C)Cc1ccc(Oc2ccccc2)cc1O [comparison, reference compound] | – | 0.25 | – |
